Measured values reported in ChEMBL document CHEMBL3994622, “Design and synthesis of new RAF kinase-inhibiting antiproliferative quinoline derivatives. Part 2: Diarylurea derivatives” (Eur J Med Chem, 2017).

How the values were obtained:
Type in all cases: functional
[1] = tested on: LOX IMVI; test: Growth inhibition of human LOXIMVI cells assessed as cell growth at 10 uM incubated for 48 hrs by sulforhodamine B assay relative to control; details: read-out: Activity
[2] = tested on: 786-0; test: Growth inhibition of human 786-0 cells assessed as cell growth at 10 uM incubated for 48 hrs by sulforhodamine B assay relative to control; details: 786-0, 48 h, read-out: Activity
[3] = tested on: A498; test: Growth inhibition of human A498 cells assessed as cell growth at 10 uM incubated for 48 hrs by sulforhodamine B assay relative to control; details: A498, 48 h, read-out: Activity
[4] = tested on: SF-268; test: Growth inhibition of human SF268 cells assessed as cell growth at 10 uM incubated for 48 hrs by sulforhodamine B assay relative to control; details: SF-268, 48 h, read-out: Activity
[5] = tested on: NCI/ADR-RES; test: Growth inhibition of human NCI/ADR-RES cells assessed as cell growth at 10 uM incubated for 48 hrs by sulforhodamine B assay relative to control; details: read-out: Activity
[6] = tested on: MCF7; test: Growth inhibition of human MCF7 cells assessed as cell growth at 10 uM incubated for 48 hrs by sulforhodamine B assay relative to control; details: MCF7, 48 h, read-out: Activity
[7] = tested on: ACHN; test: Growth inhibition of human ACHN cells assessed as cell growth at 10 uM incubated for 48 hrs by sulforhodamine B assay relative to control; details: read-out: Activity
[8] = tested on: SK-MEL-28; test: Growth inhibition of human SK-MEL-28 cells assessed as cell growth at 10 uM incubated for 48 hrs by sulforhodamine B assay relative to control; details: SK-MEL-28, 48 h, read-out: Activity
[9] = tested on: T47D; test: Growth inhibition of human T47D cells assessed as cell growth at 10 uM incubated for 48 hrs by sulforhodamine B assay relative to control; details: read-out: Activity
[10] = tested on: PC-3; test: Growth inhibition of human PC3 cells assessed as cell growth at 10 uM incubated for 48 hrs by sulforhodamine B assay relative to control; details: PC-3, 48 h, read-out: Activity
[11] = tested on: HCT-15; test: Growth inhibition of human HCT15 cells assessed as cell growth at 10 uM incubated for 48 hrs by sulforhodamine B assay relative to control; details: HCT-15, 48 h, read-out: Activity
[12] = tested on: UACC-257; test: Growth inhibition of human UACC257 cells assessed as cell growth at 10 uM incubated for 48 hrs by sulforhodamine B assay relative to control; details: UACC-257, 48 h, read-out: Activity
[13] = tested on: COLO 205; test: Growth inhibition of human COLO205 cells assessed as cell growth at 10 uM incubated for 48 hrs by sulforhodamine B assay relative to control; details: COLO 205, 48 h, read-out: Activity
[14] = tested on: SW-620; test: Growth inhibition of human SW620 cells assessed as cell growth at 10 uM incubated for 48 hrs by sulforhodamine B assay relative to control; details: SW-620, 48 h, read-out: Activity
[15] = tested on: HL-60(TB); test: Growth inhibition of human HL-60(TB) cells assessed as cell growth at 10 uM incubated for 48 hrs by sulforhodamine B assay relative to control; details: HL-60, 48 h, read-out: Activity
[16] = tested on: M14; test: Growth inhibition of human M14 cells assessed as cell growth at 10 uM incubated for 48 hrs by sulforhodamine B assay relative to control; details: M14, 48 h, read-out: Activity
[17] = tested on: NCI-H23; test: Growth inhibition of human NCI-H23 cells assessed as cell growth at 10 uM incubated for 48 hrs by sulforhodamine B assay relative to control; details: NCI-H23, 48 h, read-out: Activity
[18] = tested on: HOP-92; test: Growth inhibition of human HOP92 cells assessed as cell growth at 10 uM incubated for 48 hrs by sulforhodamine B assay relative to control; details: HOP-92, 48 h, read-out: Activity
[19] = tested on: MDA-MB-231; test: Growth inhibition of human MDA-MB-231 cells assessed as cell growth at 10 uM incubated for 48 hrs by sulforhodamine B assay relative to control; details: MDA-MB-231, 48 h, read-out: Activity
[20] = tested on: OVCAR-8; test: Growth inhibition of human OVCAR8 cells assessed as cell growth at 10 uM incubated for 48 hrs by sulforhodamine B assay relative to control; details: OVCAR-8, 48 h, read-out: Activity
[21] = tested on: HT-29; test: Growth inhibition of human HT-29 cells assessed as cell growth at 10 uM incubated for 48 hrs by sulforhodamine B assay relative to control; details: HT-29, 48 h, read-out: Activity
[22] = tested on: OVCAR-5; test: Growth inhibition of human OVCAR5 cells assessed as cell growth at 10 uM incubated for 48 hrs by sulforhodamine B assay relative to control; details: OVCAR-5, 48 h, read-out: Activity
[23] = tested on: BT-549; test: Growth inhibition of human BT549 cells assessed as cell growth at 10 uM incubated for 48 hrs by sulforhodamine B assay relative to control; details: BT-549, 48 h, read-out: Activity
[24] = tested on: K562; test: Growth inhibition of human K562 cells assessed as cell growth at 10 uM incubated for 48 hrs by sulforhodamine B assay relative to control; details: K562, 48 h, read-out: Activity
[25] = tested on: MDA-MB-435; test: Growth inhibition of human MDA-MB-435 cells assessed as cell growth at 10 uM incubated for 48 hrs by sulforhodamine B assay relative to control; details: MDA-MB-435, 48 h, read-out: Activity
[26] = tested on: SF-539; test: Growth inhibition of human SF539 cells assessed as cell growth at 10 uM incubated for 48 hrs by sulforhodamine B assay relative to control; details: SF-539, 48 h, read-out: Activity
[27] = tested on: SF-295; test: Growth inhibition of human SF295 cells assessed as cell growth at 10 uM incubated for 48 hrs by sulforhodamine B assay relative to control; details: SF-295, 48 h, read-out: Activity
[28] = tested on: NCI-H522; test: Growth inhibition of human NCI-H522 cells assessed as cell growth at 10 uM incubated for 48 hrs by sulforhodamine B assay relative to control; details: NCI-H522, 48 h, read-out: Activity
[29] = tested on: SNB-19; test: Growth inhibition of human SNB19 cells assessed as cell growth at 10 uM incubated for 48 hrs by sulforhodamine B assay relative to control; details: SNB-19, 48 h, read-out: Activity
[30] = tested on: SNB-75; test: Growth inhibition of human SNB75 cells assessed as cell growth at 10 uM incubated for 48 hrs by sulforhodamine B assay relative to control; details: SNB-75, 48 h, read-out: Activity
[31] = tested on: IGROV-1; test: Growth inhibition of human IGROV1 cells assessed as cell growth at 10 uM incubated for 48 hrs by sulforhodamine B assay relative to control; details: IGROV-1, 48 h, read-out: Activity
[32] = tested on: CCRF-CEM; test: Growth inhibition of human CCRF-CEM cells assessed as cell growth at 10 uM incubated for 48 hrs by sulforhodamine B assay relative to control; details: read-out: Activity
[33] = tested on: MOLT-4; test: Growth inhibition of human MOLT4 cells assessed as cell growth at 10 uM incubated for 48 hrs by sulforhodamine B assay relative to control; details: MOLT-4, 48 h, read-out: Activity

| SMILES | growth at 10 µM [1] [%] | growth at 10 µM [2] [%] | growth at 10 µM [3] [%] | growth at 10 µM [4] [%] | growth at 10 µM [5] [%] | growth at 10 µM [6] [%] | growth at 10 µM [7] [%] | growth at 10 µM [8] [%] | growth at 10 µM [9] [%] | growth at 10 µM [10] [%] | growth at 10 µM [11] [%] | growth at 10 µM [12] [%] | growth at 10 µM [13] [%] | growth at 10 µM [14] [%] | growth at 10 µM [15] [%] | growth at 10 µM [16] [%] | growth at 10 µM [17] [%] | growth at 10 µM [18] [%] | growth at 10 µM [19] [%] | growth at 10 µM [20] [%] | further results |
| --- | --- | --- | --- | --- | --- | --- | --- | --- | --- | --- | --- | --- | --- | --- | --- | --- | --- | --- | --- | --- | --- |
| Cc1nc2cc(O)c(O)cc2cc1Oc1ccc(NC(=O)Nc2ccc(Cl)c(Cl)c2)cc1 | 0.46 | 103 | 118 | 65.5 | 59 | 76.2 | 39 | 79.1 | 62.2 | 39.3 | 37.2 | 88.5 | 34.7 | 49.3 | 96.8 | 80.8 | 62.8 | 37.5 | 45 | 47.7 | growth at 10 µM [21]: 48%; growth at 10 µM [22]: 122%; growth at 10 µM [23]: 82.2%; growth at 10 µM [24]: 53.9%; growth at 10 µM [25]: 54.2%; growth at 10 µM [26]: 56.9%; growth at 10 µM [27]: 95.9%; growth at 10 µM [28]: 1.87%; growth at 10 µM [29]: 49%; growth at 10 µM [30]: 75.8%; growth at 10 µM [31]: 67.1%; growth at 10 µM [32]: 19.9%; growth at 10 µM [33]: 12.6% |
| COc1cc2cc(Oc3ccc(NC(=O)Nc4cccc(C(F)(F)F)c4)cc3)c(C)nc2cc1OC | 9.78 | 15.1 | 21.7 | 29.2 | 6.98 | 6.81 | 11.2 | 26.7 | 27.8 | 0.08 | 15.2 | -14.5 | -20.2 | 17.5 | -24.8 | 22.6 | 6.78 | -29.5 | -8.32 | 8.32 | growth at 10 µM [21]: 6.56%; growth at 10 µM [22]: 27.8%; growth at 10 µM [23]: -8.13%; growth at 10 µM [24]: 11.5%; growth at 10 µM [25]: 7.23%; growth at 10 µM [26]: 11.7%; growth at 10 µM [27]: -15.1%; growth at 10 µM [28]: -17.4%; growth at 10 µM [29]: 31.4%; growth at 10 µM [30]: 13.1%; growth at 10 µM [31]: 8.77%; growth at 10 µM [32]: 6.41%; growth at 10 µM [33]: 0.81% |
